Measured values from article PMC9376960, “Ruthenium(II)–Tris-pyrazolylmethane Complexes Inhibit Cancer Cell Growth by Disrupting Mitochondrial Calcium Homeostasis” (Journal of Medicinal Chemistry, 2022).

Columns and labels:
[1] = Stability and speciation in deuterated cell culture medium (DMEM-d/DMSO-d6, NMR); type: physicochemical; conditions: for residual complex % in DMEM-d/DMSO-d6: after 24 h at 37 °C; for Aquo species % in DMEM-d/DMSO-d6 at t0 / Aquo species % in DMEM-d/DMSO-d6 after 24h: DMSO-d6-DMEM-d 1:4 v/v; for Aquo species % in DMEM-d/DMSO-d6 after 24h: 37 °C
Protocol: Powdered DMEM cell culture medium (1000 mg/L glucose and L-glutamine, without sodium bicarbonate and phenol red; D2902; Sigma-Aldrich) was dissolved in D2O (10 mg/mL), according to the manufacturer’s instructions. The solution of deuterated cell culture medium (“DMEM-d”) was treated with Me2SO2 (6.6 × 10^–3 M) and NaH2PO4/Na2HPO4 (0.10 M, pD = 7.5)[120]−[122] and then stored at 4 °C under N2. The selected ruthenium compound (2–3 mg) was dissolved in DMSO-d6 (0.14 mL; 0.18 mL for 4) and then diluted with DMEM-d up to 0.75 mL total volume (cRu ca. 4 × 10^–3 M). The mixture was stirred for 30 min, then filtered over celite, and transferred into an NMR tube. The resulting yellow solution was analyzed by ^1H and ^31P NMR (delay time = 3 s; number of scans = 20) and then heated at 37 °C for 24 h. After cooling to room temperature, NMR analyses were repeated. Compound 1 was instead dissolved in a DMSO-d6/DMEM-d 4:1 v/v solution (0.7 mL; [Ru] = approx. 3 × 10^–3 M) containing Me2SO2 as the internal standard.[115] The percentage of the starting complex + related aquo complex was calculated by the relative integral with respect to Me2SO2 (δ/ppm = 3.16 in DMSO-d6/DMEM-d 1:4 and 1:3 v/v; δ/ppm = 2.95 in DMSO-d6/DMEM-d 4:1 v/v).

[2] = tested on: mitochondrial membrane potential of HCT116 cells; experiment: Mitochondrial membrane potential, TMRE assay; type: cell-based, human; conditions: 5 h; 10 μM and 2x or 4x IC50,72h
Protocol: Effects of Ru complexes on mitochondrial membrane potential were assessed by TMRE staining of HCT116 cells after treatment. First, HCT116 cells were seeded on a six-well plate at a 1.5 × 10^5 cells/well density. The next day, the cells were treated with equimolar (10 μM) and equitoxic (twofold or fourfold IC50,72h) concentrations of Ru complexes for 5 h. Then, the cells were collected and stained with 100 nM TMRE in a complete DMEM medium for 30 min at 37 °C in the dark. The TMRE-containing medium was then replaced with PBS, and cells were analyzed by a BD FACSverse flow cytometer (λex = 488 nm, λem = 586 nm).

RD = experiment: MTT antiproliferative assay; type: cell-based, human; conditions: 72 h, mean ± SD
Protocol: All of the cell lines were cultivated in DMEM medium (high glucose 4.5 g L^–1, PAA, Pasching, Austria) supplemented with gentamycin (50 μg mL^–1, Serva, Heidelberg, Germany) and 10% heat-inactivated fetal bovine serum (PAA). The medium for MRC5pd30 cells was further supplemented by 1% nonessential amino acids (Sigma-Aldrich, Prague, Czech Republic). All cells were cultured as adherent monolayers in a humidified incubator at 37 °C in a 5% CO2 atmosphere and subcultured twice a week with an appropriate plating density. In vitro antiproliferative activity of Ru complexes was determined by the MTT or, alternatively, SRB assay as already described,[84] after 72 h of incubation of cells with various concentrations of the Ru complex. The reported IC50 values are an average of three independent experiments, each consisting of three replicates per concentration.

MRC5pd30 = experiment: MTT assay on noncancerous cells; type: cell-based, human; conditions: 72 h, mean ± SD
Protocol: All of the cell lines were cultivated in DMEM medium (high glucose 4.5 g L^–1, PAA, Pasching, Austria) supplemented with gentamycin (50 μg mL^–1, Serva, Heidelberg, Germany) and 10% heat-inactivated fetal bovine serum (PAA). The medium for MRC5pd30 cells was further supplemented by 1% nonessential amino acids (Sigma-Aldrich, Prague, Czech Republic). All cells were cultured as adherent monolayers in a humidified incubator at 37 °C in a 5% CO2 atmosphere and subcultured twice a week with an appropriate plating density.
(§1) In vitro antiproliferative activity of Ru complexes was determined by the MTT or, alternatively, SRB assay as already described,[84] after 72 h of incubation of cells with various concentrations of the Ru complex. The reported IC50 values are an average of three independent experiments, each consisting of three replicates per concentration.

HCT116 = experiment: SRB antiproliferative assay; type: cell-based, human; conditions: SRB test, 72 h; mean ± SD
Protocol: as §1

HCT116 cells = experiment: Calcium flux, Rhod-2 and Fluo-4 probes; type: cell-based, human; conditions: for effect on Ca2+ flux into the mitochondria induced by ionomycin: 2.5 h pretreatment, 10 μM (1 also 2.5, 5 μM), Rhod-2, 5 μM ionomycin
Protocol: The distribution of calcium ions in cytosol and mitochondria was studied using calcium-sensitive fluorescent probes. HCT116 cells were seeded at a density of 2 × 10^5 cells/well on six-well plates. After overnight cultivation, the cells were treated with Ru complexes at indicated concentrations for 2.5 h. The culture medium was then replaced with either 5 μM Rhod-2 or Fluo-4 in PBS supplemented with 2 mM CaCl2 and incubated for 30 min at 37 °C. At last, cells were harvested and suspended in PBS (with 2 mM CaCl2) or in PBS (with 2 mM CaCl2) supplemented with ionomycin (5 μM) for 30 min at 37 °C and analyzed using a BD FACSverse flow cytometer.

HCT116 (3D) = experiment: Cytotoxicity in 3D spheroids (colonospheres), Cell Titer-Glo 3D; type: cell-based, human; conditions: for effect on the morphology of 3D spheroids: 20 µM, 72 h, bright-field images; for IC50: Cell Titer-Glo, spheroids, 72 h of treatment
Protocol: A spontaneous spheroid formation was used to generate colonospheres derived from the HCT116 cell line. The HCT116 cells were seeded on 96-well ultralow attachment plates (1400 cells/well) and cultivated in a tumor sphere-forming medium (DMEM/F12, supplemented with B27 (Invitrogen), BSA, bFGF (10 ng mL^–1), and EGF (20 ng mL^–1)) for 4 days. After the incubation period, colonospheres were treated with Ru complexes for another 3 days. The viability of colonospheres was determined by the Cell Titer-Glo 3D cell viability assay (Promega) according to the manufacturer’s instructions. The reported IC50 values are the average of three independent experiments, each consisting of three replicates per concentration level. Bright-field images of the spheroids were taken as well to determine the effect on the morphology of the spheroids.

[3] = tested on: mitochondria of HCT116 cells; experiment: Ru content in isolated mitochondria (ICP-MS); type: cell-based, human; conditions: HCT116, 10 μM, 24 h
Protocol: The HCT116 cells were seeded at a density of 3 × 10^6 cells/10 mL Petri dish and incubated overnight. The cells were treated with Ru complexes (10 μM) for 24 h, harvested, and washed with ice-cold PBS, and mitochondrial fractions were extracted by the Mitochondrial Isolation Kit (MITOISO2, Sigma-Aldrich) according to the manufacturer’s instructions. The Ru content in each sample was evaluated by ICP-MS. The measurement was performed in triplicate.

[4] = DMSO-d6/DMEM-d 1:4 v/v, sum of chloro and aquo complexes

In the case of [RuCl(κ^3-tpm)(PPh3)2]Cl [compound 1], the “residual complex % in DMEM-d/DMSO-d6” value ([1]; compound 1: DMSO-d6/DMEM-d 4:1 v/v) is reported as 88%, the “decrease of TMRE fluorescence (mitochondrial depolarization)” value (“decrease of TMRE fluorescence” for short) [2] is reported as “more pronounced” and the IC50 (RD) is reported as 2.2 ± 0.2 µM. For the same substance, the IC50 (MRC5pd30) was 5.8 ± 0.7 µM, the IC50 (HCT116) was 0.45 ± 0.05 µM and the “increase in the concentration of Ca2+ in the cytoplasm” value (HCT116 cells; 2.5 h, 10 μM, Fluo-4) was “most prominent”. For the same substance, the “effect on Ca2+ flux into the mitochondria induced by ionomycin” value (“effect … by ionomycin” below) (HCT116 cells) was “reduced Ca^2+ flux into the mitochondria”, the “effect on the morphology of 3D spheroids” value (HCT116 (3D)) was “almost completely disintegrated” and the “fold more effective than cisplatin” value (HCT116 (3D); 3D spheroids HCT116) was “approximately 18 fold”. The IC50 (HCT116 (3D)) was 2.5 ± 0.6 µM and the “Ru in isolated mitochondria” value [3] was 467 ± 66 pg Ru/10^6 cells.

For “[RuCl(κ^3-tpm)(PPh3)(CNCy)]Cl [compound 8]”, the “Aquo species % in DMEM-d/DMSO-d6 at t0” value [1] was 0%, the “Aquo species % in DMEM-d/DMSO-d6 after 24h” value (“Aquo species % … after 24h” for short) [1] was 16% and the “residual complex % in DMEM-d/DMSO-d6” value [1, 4] was 98%. For the same substance, the “decrease of TMRE fluorescence” value [2] was “more pronounced”, the IC50 (RD) was 6.6 ± 0.7 µM and the IC50 (MRC5pd30) was 19.7 ± 0.4 µM. The IC50 (HCT116) was 5.2 ± 0.5 µM, the “effect … by ionomycin” value (HCT116 cells) was “less pronounced” and the “effect on the morphology of 3D spheroids” value (HCT116 (3D)) was “heterogeneous morphology with several dissociated cell clumps”. The IC50 (HCT116 (3D)) was 12.1 ± 2.7 µM and the “Ru in isolated mitochondria” value [3] was 70 ± 15 pg Ru/10^6 cells.

In the case of “[RuCl(κ^3-tpm)(PPh3){CNCH2P(O)(OEt2)2}]Cl [compound 9]”, the “Aquo species % in DMEM-d/DMSO-d6 at t0” value [1] is reported as 0%, the “Aquo species % … after 24h” value [1] is reported as 17% and the “residual complex % in DMEM-d/DMSO-d6” value [1, 4] is reported as 97%. The IC50 (RD) was 24 ± 3 µM, the IC50 (MRC5pd30) was 50.8 ± 0.4 µM and the IC50 (HCT116) was 29 ± 3 µM. The “effect … by ionomycin” value (HCT116 cells) was “insignificant”.

With “[RuCl(κ^3-tpm)(PPh3){NCHN(Me)(CH)2}]Cl [compound 3]” the “Aquo species % in DMEM-d/DMSO-d6 at t0” value [1] was 0%, the “Aquo species % … after 24h” value [1] was 66% and the “residual complex % in DMEM-d/DMSO-d6” value [1, 4] was 100%. The IC50 (RD) was 27 ± 4 µM, the IC50 (MRC5pd30) was 83.6 ± 0.5 µM and the IC50 (HCT116) was 16 ± 2 µM.

With “[RuCl(κ^3-tpm)(PPh3){P(OMe)3}]Cl [compound 7]” the “Aquo species % in DMEM-d/DMSO-d6 at t0” value [1] was 0%, the “Aquo species % … after 24h” value [1] was 16% and the “residual complex % in DMEM-d/DMSO-d6” value [1, 4] was 95%. The “decrease of TMRE fluorescence” value [2] was “less potent in reducing mitochondrial membrane potential”, the IC50 (RD) was 6 ± 1 µM and the IC50 (MRC5pd30) was 24 ± 1 µM. For the same substance, the IC50 (HCT116) was 5.8 ± 0.6 µM, the “effect … by ionomycin” value (HCT116 cells) was “less pronounced” and the “effect on the morphology of 3D spheroids” value (HCT116 (3D)) was “heterogeneous morphology with several dissociated cell clumps”. The IC50 (HCT116 (3D)) was 12.2 ± 2.5 µM and the “Ru in isolated mitochondria” value [3] was 127 ± 24 pg Ru/10^6 cells.
